Data reported in US20090203705A1, “Spiro Compounds As NPY Y5 Receptor Antagonists” (priority 2008, published 2009).
Where a name gives a salt, the structure may show the parent alone.

These compounds were tested against T1, human NPY Y5 receptor (Homo sapiens, UniProt Q15761) (assay: FLIPR/Ca2+ functional activity at recombinant human NPY Y5 receptor). Conditions: HEK 293 signal-hNPY Y5/G16z49 cells; inhibition of calcium release by PYY at EC80; Cheng-Prusoff; read-out: fpKi.
T1 construct: expressed in transfected cells; host or cells: HEK293 (cell line HEK 293 signal-hNPY Y5/G16z49)
T1 sequence (Q15761 1-445): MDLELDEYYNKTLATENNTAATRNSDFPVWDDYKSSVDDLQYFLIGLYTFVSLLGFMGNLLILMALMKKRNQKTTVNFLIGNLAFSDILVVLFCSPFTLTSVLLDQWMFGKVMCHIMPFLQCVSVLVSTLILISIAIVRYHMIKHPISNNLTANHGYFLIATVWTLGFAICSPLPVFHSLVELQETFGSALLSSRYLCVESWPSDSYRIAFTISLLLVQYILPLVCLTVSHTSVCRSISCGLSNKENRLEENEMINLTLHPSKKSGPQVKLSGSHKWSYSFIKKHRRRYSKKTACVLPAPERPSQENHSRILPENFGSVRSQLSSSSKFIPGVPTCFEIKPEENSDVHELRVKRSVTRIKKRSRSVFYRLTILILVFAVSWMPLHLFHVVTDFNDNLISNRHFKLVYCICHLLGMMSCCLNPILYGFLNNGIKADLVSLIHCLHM
Assay type: cell-based
Text: The functional activity of the compounds of the invention for the NPY Y5 receptor may be determined by the FLIPR/Ca^2+ assay as described below. Such potency is typically calculated from the IC50 obtained in FLIPR experiments as the concentration of a compound necessary to decrease 50% of the calcium release following cells exposure to a concentration of PYY eliciting 80% response (i.e. EC80), and is reported as a “fKi” value calculated by the following equation: […]
where EC80 and EC50 corresponding to the agonist (PYY) concentrations that eliciting 80% and 50% response, respectively (corresponding to the Cheng and Prusoff equation). In the context of the present invention pfKi values (corresponding to the […] of fKi) are used instead of fKi; pfKi results are only estimated to be accurate to about 0.3-0.5.
The functional activity at the human NPY Y5 receptor stably expressed in HEK293 cells was assessed using FLIPR/Ca^2+ methodology (cell line name: HEK 293 signal-hNPY Y5/G16z49). The assay is configured to re-direct receptor-mediated signalling to the calcium release from intracellular stores via the promiscuous Gal 6z49 protein. PYY (peptide YY) is an endogenous agonist and can activate the receptor, thereupon causing an increase in the level of calcium in the cells sensed by Fluo4-AM and measured by FLIPR. Antagonist effects are monitored by the blockade or decrease in calcium release once cells co-expressing hNPY Y5 receptor and Ga16z49 are exposed to a concentration of PYY eliciting 80% response (i.e. EC80). A non-linear, 4 parameter logistic curve-fit of the data generated pIC50 value. Applying the Cheng-Prusoff equation to antagonist concentration-response for inhibition of fixed PYY concentration yielded the fpKi values.
Cells are cultured in DMEM/F12 supplemented with 10% FBS, 2 mM Glutamine, 200 μg/ml hygromycin B and 500 μg/ml G418. The day before a FLIPR experiment, cells are plated out into 384-well Poly-D-Lysine coated FLIPR plates at a density of 200'000 cells/ml corrects to give 10'000 cells per 50 μL per well using medium without antibiotics. On the day of experiment, cells are washed with an assay buffer containing 20 mM HEPES/NaOH, 145 mM NaCl, 5 mM KCl, 1 mM MgCl2, 2 mM CaCl2, 1 g/L D-glucose and 2.5 mM probenecid, pH 7.3 and loaded with 2 μM Fluo-4 AM for 60 min at 37° C. and 5% CO2. The excess of dye solution is removed by washing cells with buffer. Compound solutions, prepared by serially diluting compounds in neat DMSO and then a final 1:50 dilution step in assay buffer added with 0.05% pluronic acid, are added and incubated with the loaded cells for 30 min at 37° C. and 5% CO2.
Cells are then put in the FLIPR for the stimulus addition corresponding to a concentration of PYY eliciting 80% of the response. The response of cells to the agonist is fast and measured for 2 min after PYY addition.
`Cc1cc(N2C[C@]3(CC[C@@H](CNc4ccc(-c5ccccc5C)nn4)CC3)OC2=O)ccn1` [Example 4-39, (Trans)-8-({[6-(2-methylphenyl)-3-pyridazinyl]amino}methyl)-3-(2-methyl-4-pyridinyl)-1-oxa-3-azaspiro[4.5]decan-2-one Dihydrochloride] was tested, and the Ki was ≤ 0.1 nM. For `O=C1O[C@]2(CC[C@H](CNc3ccc(-c4cc(F)cc(F)c4)nn3)CC2)CN1c1cccnn1` [Example 4-3, (Trans)-8-({[6-(3,5-difluorophenyl)-3-pyridazinyl]amino}methyl)-3-(3-pyridazinyl)-1-oxa-3-azaspiro[4.5]decan-2-one Dihydrochloride], the Ki was ≤ 0.1 nM. `O=C1O[C@]2(CC[C@H](CNc3ccc(-c4ccccc4F)nn3)CC2)CN1c1cccnc1F` [Example 4-7, (Trans)-8-({[6-(2-fluorophenyl)-3-pyridazinyl]amino}methyl)-3-(2-fluoro-3-pyridinyl)-1-oxa-3-azaspiro[4.5]decan-2-one Hydrochloride] was tested, and the Ki was ≤ 0.316 nM. For `O=C1O[C@]2(CC[C@H](CNc3ccc(-c4cccc(C(F)(F)F)c4)nn3)CC2)CN1c1cccnn1` [Example 4-40, (Trans)-3-(3-pyridazinyl)-8-[({6-[3-(trifluoromethyl)phenyl]-3-pyridazinyl}amino)methyl]-1-oxa-3-azaspiro[4.5]decan-2-one Hydrochloride], the Ki was ≤ 0.1 nM. For `O=C1O[C@]2(CC[C@H](CNc3ccc(-c4ccccc4)nn3)CC2)CN1c1cccnn1` [Example 4-38, (Trans)-8-{[(6-phenyl-3-pyridazinyl)amino]methyl}-3-(3-pyridazinyl)-1-oxa-3-azaspiro[4.5]decan-2-one Dihydrochloride], the Ki was ≤ 1 nM. For `O=C1O[C@]2(CC[C@H](CNc3ccc(Oc4ccccc4OC(F)(F)F)nn3)CC2)CN1c1cccnn1` [Example 4-56, (Trans)-3-(3-pyridazinyl)-8-({[6-({2-[(trifluoromethyl)oxy]phenyl}oxy)-3-pyridazinyl]amino}methyl)-1-oxa-3-azaspiro[4.5]decan-2-one], the Ki was ≤ 0.1 nM.

Same assay, conditions: assay not given; towards NPY Y5 receptor
With “(Trans)-8-({[4-(1-pyrimidinyl)-2-pyrimidinyl]amino}methyl)-3-(3-pyridazinyl)-1-oxa-3-azaspiro[4.5]decan-2-one Dihydrochloride [Example 3-11]” the “activity at the highest concentration set by the experiment” value (shortened to “activity”) was “don't show activity”. `CC(C)(C)OCCOc1ccc(NCC2CCC3(CC2)CN(c2cccnn2)C(=O)O3)nn1.Cl.Cl` (stereo not drawn) [Example 4-10, (Trans)-8-({[6-({2-[(1,1-dimethylethyl)oxy]ethyl}oxy)-3-pyridazinyl]amino}methyl)-3-(3-pyridazinyl)-1-oxa-3-azaspiro[4.5]decan-2-one dihydrochloride] was tested, and the “activity” value was “don't show activity”. For `Cl.O=C1OC2(CCC(CNc3cc(-c4ccccc4)ccn3)CC2)CN1c1cccnn1` (stereo not drawn) [Example 1-39, (Trans)-8-{[(4-phenyl-2-pyridinyl)amino]methyl}-3-(3-pyridazinyl)-1-oxa-3-azaspiro[4.5]decan-2-one hydrochloride], the “activity” value was “don't show activity”. For `Cl.O=C1OC2(CCC(CNc3nccc(OCc4ccccc4)n3)CC2)CN1c1cccnn1` (stereo not drawn) [Example 3-12, (Trans)-8-[({4-[(phenylmethyl)oxy]-2-pyrimidinyl}amino)methyl]-3-(3-pyridazinyl)-1-oxa-3-azaspiro[4.5]decan-2-one hydrochloride], the “activity” value was “don't show activity”. For `Cl.Cl.O=C1OC2(CCC(CNc3ccc(C(F)(F)F)nc3)CC2)CN1c1cccnc1` (stereo not drawn) [Example 1-55, (Trans)-3-(3-pyridinyl)-8-({[6-(trifluoromethyl)-3-pyridinyl]amino}methyl)-1-oxa-3-azaspiro[4.5]decan-2-one Dihydrochloride], the “activity” value was “don't show activity”. For `Cl.O=C1OC2(CCC(CNc3nsc4ccccc34)CC2)CN1c1cccnn1` (stereo not drawn) [Example 5-5, (Trans)-8-[(1,2-benzisothiazol-3-ylamino)methyl]-3-(3-pyridazinyl)-1-oxa-3-azaspiro[4.5]-decan-2-one Hydrochloride], the “activity” value was “don't show activity”. `O=C1OC2(CCC(CNc3ccc(Cl)nn3)CC2)CN1c1ccccn1` (stereo not drawn) [Example 4-12, (Trans)-8-{[(6-chloro-3-pyridazinyl)amino]methyl}-3-(2-pyridinyl)-1-oxa-3-azaspiro[4.5]-decan-2-one] was tested, and the “activity” value was “don't show activity”. In the case of `Cl.Cl.O=C1O[C@]2(CC[C@H](CNc3ccc(N4CCOCC4)nc3)CC2)CN1c1ccccn1` [Example 1-57, (Trans)-8-({[6-(4-morpholinyl)-3-pyridinyl]amino}methyl)-3-(2-pyridinyl)-1-oxa-3-azaspiro[4.5]decan-2-one.dihydrochloride], the “activity” value is reported as “don't show activity”. For `Cn1ccnc1-c1cnc(NCC2CCC3(CC2)CN(c2ccccn2)C(=O)O3)nc1` (stereo not drawn) [Example 3-6, (Trans)-8-({[5-(1-methyl-1H-imidazol-2-yl)-2-pyrimidinyl]amino}methyl)-3-(2-pyridinyl)-1-oxa-3-azaspiro[4.5]decan-2-one], the “activity” value was “don't show activity”. `O=C1OC2(CCC(CNc3ncc(-c4ccnnc4)cn3)CC2)CN1c1ccccn1` (stereo not drawn) [Example 3-9, (Trans)-8-({[5-(4-pyridazinyl)-2-pyrimidinyl]amino}methyl)-3-(2-pyridinyl)-1-oxa-3-azaspiro[4.5]decan-2-one] was tested, and the “activity” value was “don't show activity”. In the case of `O=C1OC2(CCC(CNc3ncc(Br)cn3)CC2)CN1c1ccccn1` (stereo not drawn) [Example 3-7, (Trans)-8-{[(5-bromo-2-pyrimidinyl]amino}methyl)-3-(2-pyridinyl)-1-oxa-3-azaspiro[4.5]decan-2-one], the “activity” value is reported as “don't show activity”.
